Results from patent publication US4022889A, “Therapeutic compositions of antibiotic U-44,590 and methods for using the same” (The Upjohn Company, priority 1975, dated 1977).
Values after ≈ are worked out from the molar mass of the structure shown. Like-named read-outs stand apart in the source and are kept apart here.

Assays:
Escherichia coli [1] = test: Antibacterial activity (statement)
Pasteurella multocida = test: Antibacterial activity, standard agar dilution test; assay type: cell-based; settings: 16 h, 1 strain, Blood Agar Base with 5% defibrinated rabbit blood, 37° C., 16-18 hours, read-out: Inhibition
Experimental: (§1) The above antibacterial spectrum was obtained by a standard agar dilution test with the following media and conditions:
(§2) Difco Brain Heart Infusion Medium was used for all test bacteria except P. multocida and Hemophilus species which were grown in Difco Blood Agar Base with 5% defibrinated rabbit blood. All were grown aerobically at 37° C. (except Hemophilus species, grown anaerobically) 16-18 hours. Inocula were grown overnite (16-18 hours) at 37° C. and used to seed agar at the rate of 0.025 ml. of 10^^-3 dilution (approximately 2500 to 25,000 bacteria per drop of inoculum).

Serratia marcescens = test: as above; assay type: cell-based; settings: 16 h, 2 strains, Brain Heart Infusion, 37° C., 16-18 hours, read-out: Inhibition
Experimental: as §1, §2

Proteus mirabilis [2] = test: as above; assay type: cell-based; settings: 16 h, 3 strains, Brain Heart Infusion, 37° C., 16-18 hours, read-out: Inhibition
Experimental: as §1, §2

Pseudomonas aeruginosa = test: as above; assay type: cell-based; settings: 16 h, 5 strains, Brain Heart Infusion, 37° C., 16-18 hours, read-out: Inhibition
Experimental: as §1, §2

[3] = system: Streptococcus hemolyticus; test: as above; assay type: cell-based
Experimental: as §1, §2

Staphylococcus aureus = test: as above; assay type: cell-based; settings: 16 h, 1 strain, Brain Heart Infusion, 37° C., 16-18 hours, read-out: Inhibition
Experimental: as §1, §2

Diplococcus pneumoniae = test: as above; assay type: cell-based; settings: Streptococcus pneumoniae, 16 h, 1 strain, Brain Heart Infusion, 37° C., 16-18 hours, read-out: Inhibition
Experimental: as §1, §2

Proteus morgani = test: as above; assay type: cell-based; settings: 16 h, 3 strains, Brain Heart Infusion, 37° C., 16-18 hours, read-out: Inhibition
Experimental: as §1, §2

Proteus vulgaris [4] = test: as above; assay type: cell-based; settings: 16 h, 3 strains, Brain Heart Infusion, 37° C., 16-18 hours, read-out: Inhibition
Experimental: as §1, §2

Proteus mirabilis [5] = test: In vivo testing in infected mice; settings: IP challenge 1259 LD50, read-out: Activity (CD50)
Source text: (§3) In vivo testing of U-44,590 in mice infected with selected microorganisms is as follows: […]

Salmonella flexneri = test: In vivo testing in infected mice; settings: IP challenge 40 LD50, read-out: Activity (CD50)
Source text: as §3

[6] = system: Streptococcus hemolyticus; test: In vivo testing in infected mice; settings: Streptococcus pyogenes, Oral route, IP challenge 100 LD50, read-out: Activity (CD50)
Source text: as §3

Escherichia coli [7] = test: In vivo testing in infected mice; settings: IP challenge 79 LD50, read-out: Activity (CD50)
Source text: as §3

Proteus vulgaris [8] = test: In vivo testing in infected mice
Source text: as §3

Herpes virus = test: Activity against DNA viruses (statement); settings: for example, the Herpes virus
Herpes simplex virus = test: Antiviral activity in mice inoculated intravenously with Herpes simplex virus; assay type: in vivo; settings: 400, 200 and 100 mg./kg./dose subcutaneously, four times daily, days 0-4; 40 LD50 virus intravenously
Experimental: The following is an example of the antiviral activity of antibiotic U-44,590. The antibiotic is administered subcutaneously to mice which are inoculated intravenously with Herpes simplex virus. Treatment is initiated 2 hours prior to viral infection and is followed by treatment four times daily for five consecutive days. A detailed account of the materials and methods and results are as follows:
Male mice, weighing approximately 20 gm. each, are divided into 4 groups of 20. Group 1 is treated with saline, Group 2 with 400 mg./kg./dose (mkd) U-44,590, Group 3 with 200 mkd U-44,590, and Group 4 with 100 mkd U-44,590. The antibiotic is dissolved in saline and administered subcutaneously in the nape of the neck at 8 a.m., 12 noon, 4 p.m., and 8 p.m. on days 0, 1, 2, 3, and 4. Herpes virus at 10^^-1.5 dilution, 0.05 ml/mouse, equivalent to a viral dose of 40 LD50 s, is inoculated into the tail vein at 10 a.m. on day 0. Paralysis and death are recorded daily.
Hind leg paralysis usually preceded death by 1-2 days. All mice died that became paralyzed. Death pattern of the 4 groups, as shown in the curves which follow, illustrates the dose response obtained.

Solubilities = assay type: physicochemical
[9] = system: Gram-negative and Gram-positive bacteria; test: Antibacterial activity (statement); settings: for example, Streptococcus hemolyticus, Klebsiella, Salmonella Sp., Serratia marcescens, Pasteurella multocida, Hemophilus Sp., Proteus morgani, Proteus rettgeri

In the case of `CN1CN([C@H]2C[C@H](O)[C@@H](CO)O2)C(=O)NC1=O` [U-44,590, 1(2-deoxy-β-D-erythro-pentofuranosyl)-5,6-dihydro-5-methyl-s-triazine-2,4(1H,3H)-dione], the “Activity against Escherichia coli” value (Escherichia coli [1]) is reported as “active against Escherichia coil”, the MIC (Pasteurella multocida) is reported as 125 µg/mL (≈ 510 µM) and the MIC (Serratia marcescens) is reported as 125 µg/mL (≈ 510 µM). For the same molecule, the MIC (Proteus mirabilis [2]) was greater than 1000 µg/mL, the MIC (Pseudomonas aeruginosa) was greater than 1000 µg/mL and the “Activity against Streptococcus hemolyticus” value [3] was “active against Streptococcus hemolyticus”. It also gave an MIC ([3]; Streptococcus pyogenes, 16 h, Streptococcus hemolyticus, 1 strain, Brain Heart Infusion, 37° C., 16-18 hours, read-out: Inhibition) of 15.2 µg/mL (≈ 62 µM), an MIC (Staphylococcus aureus) greater than 1000 µg/mL and an MIC (Diplococcus pneumoniae) of 500 µg/mL (≈ 2040 µM). The MIC (Proteus morgani) was 62.5 to 250 µg/mL (≈ 255 to 1020 µM), the MIC (Proteus vulgaris [4]) was greater than 1000 µg/mL and the ED50 (Proteus mirabilis [5]; Oral route) was 101 mg/kg. It also gave an ED50 (Proteus mirabilis [5]; sc, Subcutaneous route) of 152 mg/kg, an ED50 (Salmonella flexneri; Oral route) of 62.5 mg/kg and an ED50 (Salmonella flexneri; sc, Subcutaneous route) of 38 mg/kg. For the same molecule, the ED50 [6] was greater than 160 mg/kg, the ED50 (Escherichia coli [7]; Oral route) was 218 mg/kg and the ED50 (Escherichia coli [7]; sc, Subcutaneous route) was 141 mg/kg. It also gave an ED50 (Proteus vulgaris [8]; po, IP challenge 79 LD50, read-out: Activity (CD50)) of less than 62.5 mg/kg, an ED50 (Proteus vulgaris [8]; po, IP challenge 150 LD50 (line without organism name below Proteus vulgaris), read-out: Activity (CD50)) of roughly 30 mg/kg and an ED50 (Proteus vulgaris [8]; sc, Subcutaneous route, IP challenge 79 LD50, read-out: Activity (CD50)) of 100 mg/kg. For the same molecule, the “Activity against DNA viruses” value (Herpes virus) was “active against DNA viruses”, the “Death pattern, statistical analysis of the results at day 11” value (Herpes simplex virus) was “all 3 treated groups are significantly different from the control group (1)” and the Solubility (Solubilities; in Me2 CO, EtOAc, hydrocarbons, CH2 Cl2 and CHCl3) was “relatively insoluble”. For the same molecule, the Solubility (Solubilities; in water, and lower alcohols, for example, methanol and ethanol) was “Highly soluble” and the “Effect on growth of bacteria” value [9] was “adversely affecting the growth of Gram-negative and Gram-positive bacteria”.
